From patent publication US12630535B2, “Inhibitors of ACK1/TNK2 tyrosine kinase” (H. LEE MOFFITT CANCER CENTER AND RESEARCH INSTITUTE, INC., priority 2020, dated 2026)

What was measured:
[1] = biological target: T1, ACK1 (Homo sapiens, UniProt Q07912); assay: Reaction Biology 33P Hotspot assay; format: biochemical
[2] = biological target: T1, ACK1; assay: ACK1 IC50 (Table 1); format: biochemical
[3] = biological target: T1, ACK1; assay: ACK1 ELISA; format: biochemical; details: read-out: ACK1 ELISA % Inhibition at 100 nM
[4] = test system: AR Tyr267 phosphorylation; details: cited from earlier work
[5] = test system: AKT Tyr176 phosphorylation; details: pancreatic cancer cells; cited from earlier work
[6] = test system: castration and radioresistant prostate xenograft tumor; details: cited from earlier work
[7] = test system: A549 lung cancer cell; details: 10 μM; cited from earlier work
[8] = test system: ACK1 autophosphorylation (Tyr284); details: HEK293 cells, 2 μM; cited from earlier work
[9] = test system: ACK1 in NCI-H1703 human non-small cell lung cancer cells; details: read-out: IC50 for ACK1 inhibition in NCI-H1703 cells (ELISA); cited from earlier work
[10] = mouse models; cited from earlier work

T1 sequence (Q07912 whole entry): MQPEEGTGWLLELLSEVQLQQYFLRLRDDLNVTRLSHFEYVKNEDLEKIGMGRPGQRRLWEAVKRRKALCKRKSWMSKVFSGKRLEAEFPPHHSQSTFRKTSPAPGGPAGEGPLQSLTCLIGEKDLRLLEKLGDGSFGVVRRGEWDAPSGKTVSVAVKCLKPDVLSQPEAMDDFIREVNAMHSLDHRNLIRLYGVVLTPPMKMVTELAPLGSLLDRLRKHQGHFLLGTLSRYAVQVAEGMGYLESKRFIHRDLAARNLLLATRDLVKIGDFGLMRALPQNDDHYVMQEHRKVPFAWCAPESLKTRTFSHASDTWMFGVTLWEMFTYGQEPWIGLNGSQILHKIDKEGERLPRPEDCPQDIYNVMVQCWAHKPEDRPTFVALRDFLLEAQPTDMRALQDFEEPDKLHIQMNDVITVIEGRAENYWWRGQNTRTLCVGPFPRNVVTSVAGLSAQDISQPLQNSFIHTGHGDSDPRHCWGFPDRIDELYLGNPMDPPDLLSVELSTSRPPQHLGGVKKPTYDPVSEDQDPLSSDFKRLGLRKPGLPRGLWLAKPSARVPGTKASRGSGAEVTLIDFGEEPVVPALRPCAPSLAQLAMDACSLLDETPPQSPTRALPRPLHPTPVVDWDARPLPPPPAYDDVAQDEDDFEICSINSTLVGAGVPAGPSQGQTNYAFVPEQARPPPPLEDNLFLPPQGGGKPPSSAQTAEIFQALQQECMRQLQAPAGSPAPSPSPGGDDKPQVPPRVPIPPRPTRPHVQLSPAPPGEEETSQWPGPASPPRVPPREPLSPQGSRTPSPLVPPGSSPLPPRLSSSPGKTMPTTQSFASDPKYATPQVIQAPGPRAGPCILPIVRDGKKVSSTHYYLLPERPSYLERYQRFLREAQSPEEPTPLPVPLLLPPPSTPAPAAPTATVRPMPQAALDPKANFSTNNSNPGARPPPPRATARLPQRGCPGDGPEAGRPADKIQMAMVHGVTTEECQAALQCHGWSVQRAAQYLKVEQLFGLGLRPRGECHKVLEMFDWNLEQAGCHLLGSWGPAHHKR

SMILES | IC50 [1] [nM] | IC50 [2] [nM] | other results
CN1CCN(c2ccc(Nc3ncc(Cl)c(NC[C@H]4CCCO4)n3)cc2C#N)CC1 | 112 | – | –
CN1CCN(c2ccc(Nc3ncc(Cl)c(NC[C@H]4CCCO4)n3)cc2CO)CC1 | 51 | – | –
CC(=O)N1CCN(c2ccc(Nc3ncc(Cl)c(NCC4CCOCC4)n3)cc2OC(C)C)CC1 [1-(4-(4-((5-chloro-4-(((tetrahydro-2H-pyran-4-yl)methyl)amino)pyrimidin-2-yl)amino)-2-isopropoxyphenyl)piperazin-1-yl)ethan-1-one] | 9.87 | – | –
COc1cc(N2CCN(C(C)=O)CC2)ccc1Nc1ncc(Cl)c(NCC2CCOCC2)n1 [1-(4-(4-((5-chloro-4-(((tetrahydro-2H-pyran-4-yl)methyl)amino)pyrimidin-2-yl)amino)-3-methoxyphenyl)piperazin-1-yl)ethan-1-one] | 17.3 | – | –
CC(=O)N1CCN(c2ccc(Nc3ncc(Cl)c(NCC4CCOCC4)n3)cc2)CC1 [1-(4-(4-((5-chloro-4-(((tetrahydro-2H-pyran-4-yl)methyl)amino)pyrimidin-2-yl)amino)phenyl)piperazin-1-yl)ethan-1-one] | 26.6 | – | –
COc1cc(C2CCN(C)CC2)ccc1Nc1ncc(Cl)c(NCC2CCOCC2)n1 [5-chloro-N^2-(2-methoxy-4-(1-methylpiperidin-4-yl)phenyl)-N^4-((tetrahydro-2H-pyran-4-yl)methyl)pyrimidine-2,4-diamine] | – | 20.2 | –
COc1ccc(CNc2nc(Nc3ccc(N4CCN(C)CC4)cc3OC)ncc2Cl)cc1 [5-chloro-N^2-(2-methoxy-4-(4-methylpiperazin-1-yl)phenyl)-N^4-(4-methoxybenzyl)pyrimidine-2,4-diamine] | – | 82.9 | inhibition at 0.1 µM [3]: 70.3%
COc1cc(N2CCN(C)CC2)ccc1Nc1ncc(Cl)c(NCc2ccc(C)cc2)n1 [5-chloro-N^2-(2-methoxy-4-(4-methylpiperazin-1-yl)phenyl)-N^4-(4-methylbenzyl)pyrimidine-2,4-diamine] | – | 50.8 | inhibition at 0.1 µM [3]: 77.6%
COc1cc(N2CCN(C)CC2)ccc1Nc1ncc(Cl)c(NCC2CCOCC2)n1 [5-chloro-N^2-(2-methoxy-4-(4-methylpiperazin-1-yl)phenyl)-N^4-((tetrahydro-2H-pyran-4-yl)methyl)pyrimidine-2,4-diamine] | – | 14.9 | –
COc1c(Nc2ncc(Cl)c(NCC3CCOCC3)n2)ccc(N2CCN(C)CC2)c1F [5-chloro-N^2-(3-fluoro-2-methoxy-4-(4-methylpiperazin-1-yl)phenyl)-N^4-((tetrahydro-2H-pyran-4-yl)methyl)pyrimidine-2,4-diamine] | 87.9 | – | –
CN1CCC(c2ccc(Nc3ncc(Cl)c(NCC4CCOCC4)n3)cc2F)CC1 [5-chloro-N^2-(3-fluoro-4-(1-methylpiperidin-4-yl)phenyl)-N^4-((tetrahydro-2H-pyran-4-yl)methyl)pyrimidine-2,4-diamine] | – | – | IC50 ([2]; unit inferred): 35.9 nM
CN1CCN(c2ccc(Nc3ncc(Cl)c(NCC4CCOCC4)n3)cc2F)CC1 [5-chloro-N^2-(3-fluoro-4-(4-methylpiperazin-1-yl)phenyl)-N^4-((tetrahydro-2H-pyran-4-yl)methyl)pyrimidine-2,4-diamine] | – | 19.8 | –
CN1CCC(c2ccc(Nc3ncc(Cl)c(NCC4CCOCC4)n3)cc2)CC1 [5-chloro-N^2-(4-(1-methylpiperidin-4-yl)phenyl)-N^4-((tetrahydro-2H-pyran-4-yl)methyl)pyrimidine-2,4-diamine] | – | 39.5 | –
CN1CCN(c2ccc(Nc3ncc(Cl)c(NCC4CCOCC4)n3)cc2)CC1 [5-chloro-N^2-(4-(4-methylpiperazin-1-yl)phenyl)-N^4-((tetrahydro-2H-pyran-4-yl)methyl)pyrimidine-2,4-diamine] | – | 20.5 | –
CN1CCN(Cc2ccc(Nc3ncc(Cl)c(NCC4CCCO4)n3)cc2)CC1 (centres unmarked) [5-chloro-N^2-(4-((4-methylpiperazin-1-yl)methyl)phenyl)-N^4-((tetrahydrofuran-2-yl)methyl)pyrimidine-2,4-diamine] | 145 | – | –
COc1cc(N2CCN(C)CC2)c(F)cc1Nc1ncc(Cl)c(NCC2CCOCC2)n1 [5-chloro-N^2-(5-fluoro-2-methoxy-4-(4-methylpiperazin-1-yl)phenyl)-N4-((tetrahydro-2H-pyran-4-yl)methyl)pyrimidine-2,4-diamine] | 11.9 | – | –

SMILES | IC50 [1] [nM] | IC50 [2] [nM] | other results
COc1cc(N2CCN(C)CC2)ccc1Nc1ncc(Cl)c(NCc2ccc(Cl)cc2Cl)n1 [5-chloro-N^4-(2,4-dichlorobenzyl)-N^2-(2-methoxy-4-(4-methylpiperazin-1-yl)phenyl)pyrimidine-2,4-diamine] | – | 70.1 | inhibition at 0.1 µM [3]: 78.1%
COc1cc(N2CCN(C)CC2)ccc1Nc1ncc(Cl)c(NCc2ccc(Cl)cc2)n1 [5-chloro-N^4-(4-chlorobenzyl)-N^2-(2-methoxy-4-(4-methylpiperazin-1-yl)phenyl)pyrimidine-2,4-diamine] | – | – | inhibition at 0.1 µM [3]: 67.9%
COc1cc(N2CCN(C)CC2)ccc1Nc1ncc(Cl)c(NCc2ccc(F)cc2)n1 [5-chloro-N^4-(4-fluorobenzyl)-N^2-(2-methoxy-4-(4-methylpiperazin-1-yl)phenyl)pyrimidine-2,4-diamine] | – | 43.9 | inhibition at 0.1 µM [3]: 91.2%
CN1CCN(c2ccc(Nc3ncc(Cl)c(NCc4ccc(F)cc4)n3)cc2)CC1 [5-chloro-N^4-(4-fluorobenzyl)-N^2-(4-(4-methylpiperazin-1-yl)phenyl)pyrimidine-2,4-diamine] | – | 35.6 | inhibition at 0.1 µM [3]: 94%
CN1CCC(c2cc(F)c(Nc3ncc(Cl)c(NC[C@H]4CCCO4)n3)cc2F)CC1 [(R)-5-chloro-N^2-(2,5-difluoro-4-(1-methylpiperidin-4-yl)phenyl)-N^4-((tetrahydrofuran-2-yl)methyl)pyrimidine-2,4-diamine] | – | 44.7 | –
Cc1cc(Nc2ncc(Cl)c(NC[C@H]3CCCO3)n2)c(F)cc1C1CCN(C)CC1 [(R)-5-chloro-N^2-(2-fluoro-5-methyl-4-(1-methylpiperidin-4-yl)phenyl)-N^4-((tetrahydrofuran-2-yl)methyl)pyrimidine-2,4-diamine] | – | 85.3 | –
CN1CCN(c2cccc(Nc3ncc(Cl)c(NC[C@H]4CCCO4)n3)c2)CC1 [(R)-5-chloro-N^2-(3-(4-methylpiperazin-1-yl)phenyl)-N^4-((tetrahydrofuran-2-yl)methyl)pyrimidine-2,4-diamine] | 88 | – | –
COCCOCc1cc(Nc2ncc(Cl)c(NC[C@H]3CCCO3)n2)ccc1N1CCN(C)CC1 [(R)-5-chloro-N^2-(3-((2-methoxyethoxy)methyl)-4-(4-methylpiperazin-1-yl)phenyl)-N^4-((tetrahydrofuran-2-yl)methyl)pyrimidine-2,4-diamine] | 198 | – | –
CC(C)OCc1cc(Nc2ncc(Cl)c(NC[C@H]3CCCO3)n2)ccc1N1CCN(C)CC1 [(R)-5-chloro-N^2-(3-(isopropoxymethyl)-4-(4-methylpiperazin-1-yl)phenyl)-N^4-((tetrahydrofuran-2-yl)methyl)pyrimidine-2,4-diamine] | 167 | – | –
CC(C)Oc1cc(Nc2ncc(Cl)c(NC[C@H]3CCCO3)n2)ccc1C1CCN(C)CC1 [(R)-5-chloro-N^2-(3-isopropoxy-4-(1-methylpiperidin-4-yl)phenyl)-N^4-((tetrahydrofuran-2-yl)methyl)pyrimidine-2,4-diamine] | 62 | – | –
COc1cc(Nc2ncc(Cl)c(NC[C@H]3CCCO3)n2)ccc1C1CCN(C)CC1 [(R)-5-chloro-N^2-(3-methoxy-4-(1-methylpiperidin-4-yl)phenyl)-N^4-((tetrahydrofuran-2-yl)methyl)pyrimidine-2,4-diamine] | 87.2 | – | –
c1ccc(-c2oc3ncnc(NC[C@@H]4CCCO4)c3c2-c2ccccc2)cc1 [Compound 1b] | – | – | AR Tyr267 phosphorylation [4]: inhibits; ACK1 dependent AKT Tyr176 phosphorylation [5]: inhibits; xenograft tumor growth [6]: inhibits
COc1cc(N2CCN(C)CC2)ccc1Nc1ncc2c(n1)N(C)c1ccccc1C(=O)N2 [Compound 3] | – | – | A549 lung cancer cell growth [7]: inhibits; EGF induced ACK1 autophosphorylation (Tyr284) [8]: abolishes
COc1cc(Oc2ccccc2)ccc1-c1nc(C2CC(C)(O)C2)n2ccnc(N)c12 (centres unmarked) [Compound 4] | – | – | IC50 [9]: 35 nM; oral bioavailability [10]: orally bioavailable
COc1cc(N2CCN(C)CC2)ccc1Nc1ncc(Cl)c(NCc2ccccc2)n1 [N^4-benzyl-5-chloro-N^2-(2-methoxy-4-(4-methylpiperazin-1-yl)phenyl)pyrimidine-2,4-diamine] | – | 48.2 | inhibition at 0.1 µM [3]: 98.2%
